# Several values for one entry are separate records, joined by “and”; a condition that tells them apart may be missing. Equal values may be shown once. Read-outs that look alike come from different tables or passages of the source.
# Columns and labels:
# [1] = system: lung cancer cells (line MV522); test: Cancer cell proliferation (MV522) assay; type: cell-based; conditions: MV522; Table 1; read-out: MV522 IC50
# How it was run: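 MTT reduction read-out was taken 72 h after addition of test agents, with no prior serum starvation. Cells were plated beforehand at two thousand per well in RPMI1640 containing 10% FBS and 2 mM glutamine and allowed one day to adhere.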
# [2] = target: phosphorylated VEGF-R2Δ50 (Homo sapiens, UniProt P35968, DEL940-989/E990V); test: biochemical; conditions: for inhibition at 0.05 µM: read-out: FLVK -P** (% inhibition); for inhibition at 1 µM: read-out: FLVK-P* (% inhibition)
# [3] = target: human FGF-R1 (Homo sapiens, UniProt P11362, C488A/C584S/L457V); test: FGF-R spectrophotometric assay; type: biochemical; conditions: Table 1; for inhibition at 1 µM: read-out: FGF-P* (% inhibition)
# Experimental: The spectrophotometric assay was carried out as described above for VEGF-R2, except for the following changes in concentration: FGF-R = 50 nM, ATP = 2 mM, and poly(E4Y1) =15 mM.
# [4] = target: T1, unphosphorylated VEGF-R2Δ50 (Homo sapiens, UniProt P35968, DEL940-989/E990V); test: biochemical
# [5] = target: LCK tyrosine kinase (Homo sapiens, UniProt P06239, C224D/P223M); test: LCK spectrophotometric assay; type: biochemical; conditions: Table 1, compound concentration 1 µM; for inhibition at 1 µM: read-out: Lck-P* (% inhibition)
# Experimental: The spectrophotometric assay was carried out as described above for VEGF-R2, except for the following changes in concentration: LCK = 60 nM, MgCl2 = 0 mM, poly(E4Y1) = 20 mM.
# [6] = in vitro; type: in vitro ADME, human; conditions: 2 h
# How it was run: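 HLM diluted to 5 mg/mL in 100 mM KPO4, preincubated 10 min at 37 °C with NADPH-regenerating system. Compound (5 µM final) incubated at 37 °C in triplicate, sampled at 0 and 2 h into ice-cold acetonitrile, then LC-MS analysis.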
# [7] = target: T1, unphosphorylated VEGF-R2Δ50; conditions: Table 1; for FLVK ** (% inhibition): compound concentration 50 nM; for Ki: read-out: FLVK ** (Ki)
# [8] = system: VEGF dependent retinal vascular development; test: In vivo assay of retinal vascular development in neonatal rats; parameters: species or system rat; conditions: vehicle PEG/water 70:30
# How it was run: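 Neonatal rats given compound by intravitreal injection, vehicle usually 50% PEG 400/50% 300 mM sucrose, with vehicle in contralateral eye. Retinas removed six days later, ADPase-stained and flat-mounted; stained vessel area quantified by imaging and expressed as percent regression versus vehicle eye.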
# [9] = system: human umbilical vein endothelial cells (HUVEC); test: HUVEC proliferation assay (VEGF-stimulated, MTT); type: cell-based; conditions: Table 1
# [10] = mouse, in vivo, pH 2.3
# [11] = target: T2, human CHK1 (FL-CHK1) (Homo sapiens, UniProt O14757); test: CHK1 coupled spectrophotometric assay; type: biochemical; conditions: for inhibition at 1 µM: read-out: CHK1* (% inhibition)
# T2 construct: C-terminally His-tagged full-length human CHK1 (FL-CHK1) was expressed using the baculovirus/insect cell system; made in house; host or cells: baculovirus/insect cell system
# T2 sequence (O14757 1-476): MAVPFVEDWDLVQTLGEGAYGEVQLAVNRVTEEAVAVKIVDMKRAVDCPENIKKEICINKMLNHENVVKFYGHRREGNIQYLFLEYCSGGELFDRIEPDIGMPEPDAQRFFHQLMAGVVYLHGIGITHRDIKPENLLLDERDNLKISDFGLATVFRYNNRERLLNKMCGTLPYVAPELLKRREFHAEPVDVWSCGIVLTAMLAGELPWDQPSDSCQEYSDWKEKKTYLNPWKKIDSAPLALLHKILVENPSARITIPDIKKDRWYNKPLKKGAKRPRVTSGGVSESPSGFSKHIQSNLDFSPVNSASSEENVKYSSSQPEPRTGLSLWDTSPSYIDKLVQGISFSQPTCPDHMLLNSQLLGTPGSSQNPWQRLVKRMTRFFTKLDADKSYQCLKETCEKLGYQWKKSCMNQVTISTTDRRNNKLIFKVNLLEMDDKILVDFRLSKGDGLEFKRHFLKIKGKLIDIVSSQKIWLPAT
# How it was run: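 His-tagged full-length human CHK1 from baculovirus/insect cells, 10 nM, phosphorylating Syntide-2. ADP formation coupled via PK/LDH with PEP to NADH oxidation, followed as absorbance decrease at 340 nm. Ki from initial rates at varying compound concentrations.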
# [12] = target: T3, CDK4/Cyclin D3 complex (Homo sapiens, UniProt P11802); conditions: read-out: CDK4* (Ki), Table 2
# [13] = system: VEGF dependent retinal neovascularization; test: Neonatal rat model of retinopathy of prematurity; type: in vivo; conditions: Model ROP, intravitreal, vehicle PEG/water 70:30
# [14] = target: T3, CDK4/Cyclin D3 complex; test: biochemical; conditions: read-out: CDK4 * (% inhibition)
# [15] = target: T4, human FAK (FAKcd409) (Homo sapiens, UniProt Q05397, P410T); test: FAK fluorescence polarization assay; type: biochemical; conditions: read-out: % Inhibition @ 1 µM FAK
# T4 construct: comprises residues methionine 409 to glutamate 689; made in house; host or cells: baculovirus vector expression system (insect cells)
# Experimental: FAK Construct for Assay. The catalytic domain of human FAK (FAKcd409) was expressed using the baculovirus vector expression system. […] The protein was purified using classical chromatography techniques.
# FAK HTS utilized the fluorescence polarization assay provided by LJL Biosystems. The kinase reaction contained: 100mM Hepes pH 7.5, 10mM MgCl2, 1mM DTT, 1mM ATP, and 1mg/ml poly Glu-Tyr (4: 1). The reaction is initiated by the addition of 5nM FAKcd409. The reaction is terminated by the addition of EDTA followed by addition of fluor-labelled peptide and anti-phosphotyrosine antibody, both provided by LJL Biosystems. Inhibition results are read on a Analyst (LJL) detector.
# [16] = in vivo; conditions: mouse, plasma, pH 2.3
# [17] = Homo sapiens, HUVEC, + albumin, read-out: HUVEC + albumin IC50
# [18] = Homo sapiens, HUVEC, read-out: HUVEC IC50
# [19] = human liver microsomes, 5 µM test compound, 37 °C
# Chain of phosphorylated VEGF-R2Δ50 (P35968 with tags, fused parts or gaps DEL940-989/E990V limits assumed): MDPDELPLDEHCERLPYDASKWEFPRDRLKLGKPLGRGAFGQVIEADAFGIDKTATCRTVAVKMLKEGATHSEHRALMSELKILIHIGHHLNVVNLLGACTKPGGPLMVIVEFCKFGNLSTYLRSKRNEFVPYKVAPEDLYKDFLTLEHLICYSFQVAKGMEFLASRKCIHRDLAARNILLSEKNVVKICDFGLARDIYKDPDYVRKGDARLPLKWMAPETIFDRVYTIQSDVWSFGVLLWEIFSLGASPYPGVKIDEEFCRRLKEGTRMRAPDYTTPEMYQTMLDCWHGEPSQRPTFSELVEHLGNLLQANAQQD
# T1 sequence (P35968 with tags, fused parts or gaps DEL940-989/E990V limits assumed): as above
# Chain of LCK tyrosine kinase (P06239 223-509 P223M/C224D): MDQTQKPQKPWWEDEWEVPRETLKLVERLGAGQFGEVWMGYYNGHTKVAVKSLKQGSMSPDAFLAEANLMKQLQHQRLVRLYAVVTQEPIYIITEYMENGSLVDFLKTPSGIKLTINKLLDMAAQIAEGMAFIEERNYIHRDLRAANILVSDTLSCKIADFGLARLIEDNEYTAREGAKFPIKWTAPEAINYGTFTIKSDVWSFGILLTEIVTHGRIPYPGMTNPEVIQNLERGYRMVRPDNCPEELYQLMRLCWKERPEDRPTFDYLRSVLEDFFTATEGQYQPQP
# Chain of human FGF-R1 (P11362 456-766 L457V/C488A/C584S): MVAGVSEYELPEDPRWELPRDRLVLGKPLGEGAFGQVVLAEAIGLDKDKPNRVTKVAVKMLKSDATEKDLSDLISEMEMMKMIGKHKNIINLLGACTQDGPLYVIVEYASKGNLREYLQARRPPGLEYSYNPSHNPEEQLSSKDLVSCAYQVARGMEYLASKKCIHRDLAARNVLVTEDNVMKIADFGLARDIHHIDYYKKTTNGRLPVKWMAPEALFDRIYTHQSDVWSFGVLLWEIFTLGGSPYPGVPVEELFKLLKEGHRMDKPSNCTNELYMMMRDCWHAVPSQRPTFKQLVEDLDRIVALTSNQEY
# T3 sequence (P11802 whole entry): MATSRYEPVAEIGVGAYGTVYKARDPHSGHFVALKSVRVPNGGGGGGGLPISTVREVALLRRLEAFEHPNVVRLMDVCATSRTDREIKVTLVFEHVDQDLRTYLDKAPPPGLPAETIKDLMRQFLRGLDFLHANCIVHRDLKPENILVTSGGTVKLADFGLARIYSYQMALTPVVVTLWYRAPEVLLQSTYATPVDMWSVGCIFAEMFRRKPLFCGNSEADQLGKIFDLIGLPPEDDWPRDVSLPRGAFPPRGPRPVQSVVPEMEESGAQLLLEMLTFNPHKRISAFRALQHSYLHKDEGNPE
# T3 sequence (P30281 whole entry partner): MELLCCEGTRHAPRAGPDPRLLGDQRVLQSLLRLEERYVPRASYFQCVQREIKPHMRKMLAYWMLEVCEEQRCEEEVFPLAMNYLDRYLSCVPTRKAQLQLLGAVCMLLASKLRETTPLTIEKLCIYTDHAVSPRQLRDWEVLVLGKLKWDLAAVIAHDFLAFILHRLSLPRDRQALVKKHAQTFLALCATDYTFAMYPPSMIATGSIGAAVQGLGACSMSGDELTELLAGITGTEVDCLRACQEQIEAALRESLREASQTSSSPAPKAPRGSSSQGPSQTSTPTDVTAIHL
# T4 sequence (Q05397 409-689 P410T): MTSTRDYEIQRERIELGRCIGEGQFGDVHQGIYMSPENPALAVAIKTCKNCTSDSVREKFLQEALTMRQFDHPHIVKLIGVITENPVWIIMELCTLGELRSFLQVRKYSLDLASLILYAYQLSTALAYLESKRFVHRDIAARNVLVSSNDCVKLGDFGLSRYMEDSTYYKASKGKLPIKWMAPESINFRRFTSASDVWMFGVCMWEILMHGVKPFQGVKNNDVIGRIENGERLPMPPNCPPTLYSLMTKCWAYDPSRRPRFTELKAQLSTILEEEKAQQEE
compound,measurement,setting,value
"CC(=O)NC(C(=O)Nc1cccc(C(=O)c2ccc3c(/C=C/c4ccccc4)n[nH]c3c2)c1)c1ccccc1 (stereo not shown) [19(i), 6-[3-(2-acetamido-2-phenylacetamido)benzoyl]-3-E-styryl-1H-indazole]",IC50,[1],3800 nM
same,Ki,[2],4.7 nM
same,inhibition at 1 µM,[3]; compound concentration 1 µM,88%
same,Ki,[4],0.72 nM
same,inhibition at 1 µM,[5],36%
6-[2-((4-Aminobenzyl)methylcarbamoyl)phenylsulfanyl]-3-E-[2-(pyridin-2-yl)ethenyl]-1H-indazole [Reference Example 35(I)],"% remain (HLM, 2 h)","[6]; human, microsomes, 5 µM",5%
same,FLVK ** (% inhibition),"[7]; listed as 35(l), 0.05 µM",100% and 99%
"O=C(Nc1cccc(C(=O)c2ccc3c(/C=N/n4cnnc4)n[nH]c3c2)c1)c1ccccc1 [Example 42(e), 6-(3-benzamidobenzoyl)-3-E-[N-(4H-1,2,4-triazol-4-yl)iminomethyl]-1H-indazole]",Ki,[7],1.1 nM
"O=C(NC1CC1)c1ccccc1Sc1ccc2c(/C=C/c3ccccn3)n[nH]c2c1 [Reference Example 33(e), 6-[2-(cyclopropylcarbamoyl)phenylsulfanyl]-3-E-[2-(pyridin-2-yl)ethenyl]-1H--1H-indazole]",% Inhibition,"[8]; Model P8, intravitreal, 5 mg/ml",22%
same,IC50,[9]; [17],5 nM
same,IC50,[9]; [18],0.46 nM
same,inhibition at 0.05 µM,[2],70%
same,inhibition at 1 µM,[3]; compound concentration 1 µM,68%
same,"% remain (HLM, 2 h)",[6]; [19],54%
same,inhibition at 1 µM,[5],2%
"O=C(Cc1cc(F)cc(F)c1)Nc1cccc(C(=O)c2ccc3c(/C=C/c4ccccn4)n[nH]c3c2)c1 [Reference Example 41(f), 6-[3-(3,5-difluorophenylacetamido)benzoyl]-3-E-[2-(pyridin-2-yl)ethenyl]-1H-indazole]",inhibition at 0.05 µM,[2],84%
same,inhibition at 1 µM,[3]; compound concentration 1 µM,92%
same,"% remain (HLM, 2 h)",[6]; [19],59%
same,inhibition at 1 µM,[5],65%
O=C(c1cccc(NC(=O)c2ccccn2)c1)c1ccc2c(/C=C/c3ccccn3)n[nH]c2c1 [41 (aa)],IC50,[9]; read-out: HUVEC IC50,1 nM
same,AUCleast,"[10]; ip, 25 mg/kg",6659 ng·h/mL
same,T1/2,"[10]; ip, 25 mg/kg",2.1 h
same,Cmin (7 hr conc.),"[10]; po, 50 mg/kg, 7 h",5 ng/mL
same,AUCleast,"[10]; po, 50 mg/kg",289 ng·h/mL
same,T1/2,"[10]; po, 50 mg/kg",0.9 h
same,FGF-P* (% inhibition),[3]; compound concentration 1 µM,37%
same,"% remain (HLM, 2 h)","[6]; human, microsomes, 5 µM",100%
same,Ki,[7],0.11 nM
same,Lck-P* (% inhibition),[5],49%
"CCc1cc(O)ccc1-c1ccc2c(-c3nc4ccccc4[nH]3)n[nH]c2c1 [24(e), 3-1H-Benzoimidazol-2-yl-6-(2-ethyl-4-hydroxyphenyl)-1H-indazole]",inhibition at 1 µM,"[11]; Table 2, compound concentration 1 µM, NI = no significant inhibition",75%
same,inhibition at 1 µM,[2],52%
NNC(=O)c1ccccc1Sc1ccc2c(C=Cc3ccccn3)n[nH]c2c1 [35(il)],FLVK ** (% inhibition),[7],44%
"CCOCc1cc(O)c(OC)cc1-c1ccc2c(-c3nc4ccccc4[nH]3)n[nH]c2c1 [Reference Example 24(l), 3-1H-Benzoimidazol-2-yl-6-(2-(ethoxymethyl)-5-methoxy-4-hydroxy-phenyl)-1H-indazole]",inhibition at 20 µM,[11]; read-out: CHK1* (% inhibition @ 20 µM),62%
same,Ki,[12],13 nM
same,Ki,[12]; listed as 24(1),71 nM
"O=C(Nc1cccc(C(=O)c2ccc3c(/C=C/c4ccccn4)n[nH]c3c2)c1)c1ccccc1 [Reference Example 42(a), 6-(3-Benzamidobenzoyl)-3-E-[2-(pyridin-2-yl)ethenyl]-1H-indazole]",% Inhibition,"[8]; Model P6-P10, IP*",61%
same,% Inhibition,"[8]; Model P9, intravitreal, 10 mg/ml",55%
same,IC50,[1],5500 nM
same,inhibition at 0.05 µM,[2],79%
same,"% remain (HLM, 2 h)",[6]; [19],92%
same,% Inhibition,[13]; 1 mg/ml,1%
same,Initial Evaluation,[13]; 1 mg/ml,+ (one plus being detectable regression judged to be approximately 25 percent or less)
same,% Inhibition,[13]; 10 mg/ml,23%
"Oc1ccc(-c2ccc3c(-c4nc5ccccc5[nH]4)n[nH]c3c2)c(O)c1 [24(f), 3-1H-Benzoimidazol-2-yl-6-(2,4-dihydroxyphenyl)-1H-indazole]",inhibition at 1 µM,[11],97%
same,inhibition at 1 µM,[2],89%
"C/C=C/C(=O)Nc1cccc(C(=O)c2ccc3c(/C=C/c4ccccn4)n[nH]c3c2)c1 [Reference Example 41(c), 6-(3-crotonylamidobenzoyl)-3-E-[2-(pyridio-2-yl)ethenyl]-1H-indazole]",IC50,[9]; [17],5.3 nM
same,IC50,[9]; [18],0.4 nM
same,inhibition at 0.05 µM,[2],83%
same,inhibition at 1 µM,[3]; compound concentration 1 µM,77%
same,"% remain (HLM, 2 h)",[6]; [19],68%
same,inhibition at 1 µM,[5],36%
"CNC(=O)c1ccccc1Sc1ccc2c(/C=C/c3ccccn3)n[nH]c2c1 [Reference Example 33(a), 6-[2-(methylcarbamoyl)phenylsulfanyl]-3-E[2-(pyridin-2-yl)ethenyl]indazole]",inhibition at 0.05 µM,[2],42%
same,"% remain (HLM, 2 h)","[6]; human, microsomes, 5 µM",29%
same,inhibition at 1 µM,[14],7%
same,inhibition at 1 µM,[15],12%
same,AUC,"[16]; ip, 25 mg/kg",13800 ng·h/mL
same,AUC,"[16]; po, 50 mg/kg",19100 ng·h/mL
CCn1nc(C)cc1C(=O)Nc1cc(C(=O)c2ccc3c(/C=C/c4ccccn4)n[nH]c3c2)c(C)cc1C [41(11)],Ki,[3]; read-out: FGF-P* (Ki),11 nM
same,"% remain (HLM, 2 h)","[6]; human, microsomes, 5 µM",85%
same,FLVK ** (% inhibition),[7],57%
same,Lck-P* (% inhibition),[5],18%
"O=C(Nc1ccc(N2CCNCC2)c(C(F)(F)F)c1)c1ccccc1Sc1ccc2c(/C=C/c3ccccc3)n[nH]c2c1 [Reference Example 38(b), 6-[2-((4-piperizin-1-yl-3-trifluoromethylphenyl)carbamoyl)phenylsulfanyl]-3-E-(2-styryl)-1H-indazole]",IC50,[9]; [18],79 nM
same,inhibition at 0.05 µM,[2],72%
